# System: KYSE520
# Experiment: Combination growth inhibition (isobologram), KYSE520
# Type: cell-based
# Settings: erlotinib (EGFR inhibitor) combined with a SHP2 inhibitor of the instant disclosure; KYSE520 cells; FIG. 1A
row,SMILES,growth inhibition (isobologram)
1,C#Cc1cccc(Nc2ncnc3cc(OCCOC)c(OCCOC)cc23)c1 [erlotinib],synergistic growth inhibition

# System: NCI—H3122 (non-small cell lung cancer cells)
# Experiment: Combination growth inhibition (isobologram), NCI-H3122
# Type: cell-based
# Settings: crizotinib (ALK inhibitor) combined with a SHP2 inhibitor of the instant disclosure, FIG. 1B
row,SMILES,growth inhibition (isobologram)
1,C[C@@H](Oc1cc(-c2cnn(C3CCNCC3)c2)cnc1N)c1c(Cl)ccc(F)c1Cl [crizotinib],synergistic growth inhibition

# System: NCI—N87 (gastric cancer cells)
# Experiment: Combination growth inhibition (isobologram), NCI-N87
# Type: cell-based
# Settings: selumetinib (MEK inhibitor) combined with a SHP2 inhibitor of the instant disclosure, FIG. 2A
row,SMILES,growth inhibition (isobologram)
1,Cn1cnc2c(F)c(Nc3ccc(Br)cc3Cl)c(C(=O)NOCCO)cc21 [selumetinib],synergistic growth inhibition

# System: NCI—H23 (KRAS G12C mutant non-small cell lung cancer cells)
# Experiment: Combination growth inhibition (isobologram), NCI-H23
# Type: cell-based
# Settings: ARS-1620 (KRAS G12C inhibitor) combined with a SHP2 inhibitor of the instant disclosure, FIG. 2B
row,SMILES,growth inhibition (isobologram)
1,C=CC(=O)N1CCN(c2ncnc3c(F)c(-c4c(O)cccc4F)c(Cl)cc23)CC1 [ARS-1620],synergistic growth inhibition

# System: HuH-7 (hepatocellular carcinoma cells)
# Experiment: Combination growth inhibition (isobologram), HuH-7
# Type: cell-based
# Settings: AZD-4547 (FGFR inhibitor) combined with a SHP2 inhibitor of the instant disclosure; HuH-7 cells; FIG. 3
row,SMILES,growth inhibition (isobologram)
1,COc1cc(CCc2cc(NC(=O)c3ccc(N4CC(C)NC(C)C4)cc3)n[nH]2)cc(OC)c1 (stereo not drawn) [AZD-4547],synergistic growth inhibition

# Target: SHP2 (Homo sapiens (Human), UniProt Q06124)
# Experiment: SHP2 allosteric inhibition assay (DiFMUP prompt fluorescence)
# Type: biochemical
# Settings: 0.25 nM SHP2 activated with 0.5 μM peptide IRS1_pY1172(dPEG8)pY1222; substrate DiFMUP
row,SMILES,IC50 [nM]
1,"Cc1cc(-c2nccs2)cc(N2CCC3(CC2)Cc2ccccc2[C@H]3N)n1 [Example 270, (S)-1′-(6-methyl-4-(thiazol-2-yl)pyridin-2-yl)-1,3-dihydrospiro[indene-2,4′-piperidin]-1-amine]",1000 to 10000
2,"N[C@@H]1c2ccccc2OC12CCN(c1cnc(SCC3CC3)cn1)CC2 [Example 273, (R)-1′-(5-((cyclopropylmethyl)thio)pyrazin-2-yl)-3H-spiro[benzofuran-2,4′-piperidin]-3-amine]",≤ 50
3,"N[C@@H]1c2ccccc2O[C@]12C[C@H]1CC[C@@H](C2)N1c1cnc(SCC2CC2)cn1 [Example 274, (1′R,2r,3R,5'S)-8′-(5-((cyclopropylmethyl)thio)pyrazin-2-yl)-3H-8′-azaspiro[benzofuran-2,3′-bicyclo[3.2.1]octan]-3-amine]",1000 to 10000
4,"N[C@H]1c2ccccc2C[C@]12CC[C@@H](c1cnc(SCC3CC3)cn1)CC2 [Example 285, (1r, 4r)-4-{5-[(cyclopropylmethyl)sulfanyl]pyrazin-2-yl}-1′,3′-dihydrospiro[cyclohexane-1,2′-inden]-3′-amine]",≤ 50
5,"N[C@@H]1c2ccccc2CC12CCN(C(=O)c1csc(-c3c(Cl)cccc3Cl)n1)CC2 [Example 286, (1S)-1′-[2-(2,6-dichlorophenyl)-1,3-thiazole-4-carbonyl]-1,3-dihydrospiro[indene-2,4′-piperidin]-1-amine]",≤ 50
6,"COc1cccc(-n2nccc2C(=O)N2CCC3(CC2)Cc2ccccc2[C@H]3N)c1 [Example 288, (1S)-1′-[1-(3-methoxyphenyl)-1H-pyrazole-5-carbonyl]-1,3-dihydrospiro[indene-2,4′-piperidin]-1-amine]",> 10000
7,"N[C@@H]1c2ccccc2CC12CCN(C(=O)c1ccccc1Oc1ccccc1)CC2 [Example 292, (3S)-1′-(2-phenoxybenzoyl)-1,3-dihydrospiro[indene-2,4′-piperidin]-3-amine]",> 10000

# Now from value to molecule:
row,IC50 [nM],SMILES
1,≤ 50,"Cc1cc(N2CCC3(CC2)Cc2ccccc2[C@H]3N)cc(S(C)(=O)=O)c1 [Example 271, (S)-1′-(3-methyl-5-(methylsulfonyl)phenyl)-1,3-dihydrospiro[indene-2,4′-piperidin]-1-amine]"
2,≤ 50,"Cc1nc2c(N3CCCCC3)n[nH]c2nc1N1CCC2(CC1)Oc1cc(F)ccc1[C@H]2N [Example 278, (3R)-6-fluoro-1′-[5-methyl-3-(piperidin-1-yl)-1H-Pyrazolo[3,4-b]pyrazin-6-yl]-3H-spiro[1-benzofuran-2,4′-piperidin]-3-amine]"
3,≤ 50,"N[C@@H]1c2ccccc2C[C@]12CC[C@H](c1ccc(Sc3ccnc(Cl)c3Cl)nc1)CC2 [Example 279, (1s,3'S,4R)-4-{6-[(2,3-dichloropyridin-4-yl)sulfanyl]pyridin-3-yl}-1′,3′-dihydrospiro[cyclohexane-1,2′-inden]-3′-amine]"
4,≤ 50,"N[C@H]1c2ccccc2C[C@]12CC[C@H](c1ccc(Sc3ccnc(Cl)c3Cl)nc1)CC2 [Example 280, (1s,1′R,4S)-4-(6-((2,3-dichloropyridin-4-yl)thio)pyridin-3-yl)-1′,3′-dihydrospiro[cyclohexane-1,2′-inden]-1′-amine]"
5,≤ 50,"COc1cccc(-n2ccc(C(=O)N3CCC4(CC3)Cc3ccccc3[C@H]4N)n2)c1 [Example 287, (1S)-1′-[1-(3-methoxyphenyl)-1H-pyrazole-3-carbonyl]-1,3-dihydrospiro[indene-2,4′-piperidin]-1-amine]"
6,≤ 50,"Cc1cc(-c2cccnc2)c(C)c(N2CCC3(CC2)Cc2ccccc2[C@H]3N)n1 [Example 294, (3S)-1′-{3′,6′-dimethyl-[3,4′-bipyridin]-2′-yl}-1,3-dihydrospiro[indene-2,4′-piperidin]-3-amine]"

# From patent US10934302B1, “SHP2 phosphatase inhibitors and methods of use thereof” (Relay Therapeutics, Inc., priority 2018, dated 2021)
